The values below are quoted from earlier work in patent publication EP1195160B1, “Sustained release trimetazidine pharmaceutical compositions and a method of their preparation” (USV Ltd., priority 2000, dated 2002).

Read-outs that look alike come from different tables or passages of the source.

For data set [1] the following is noted: 20mg, single dose administration.
For data set [2] the following is noted: oral, immediate release preparation.
For data set [3] the following is noted: value from the literature.
The conditions of data set [4]: 80mg dose, prolonged release coated reservoir system of EP 0 673 649, 12 volunteers.

On to `COc1ccc(CN2CCNCC2)c(OC)c1OC.Cl.Cl` [Trimetazidine dihydrochloride, 1-(2,3,4-trimethoxybenzyl)-piperazine dihydrochloride], for which the “maximum plasma concentration Cmax” value in data set [1] was 53.6 ± 9.0 ng/mL. In data set [2], the T max entry was “around 1.8 ± 0.7 hours” and the plasma half life result was “around 6.0 ± 1.4 hours”. Moreover, in data set [3], the “Elimination half life t 1/2” value was “t 1/2 = 6.0 hours”, the “Plasma concentration Css” value is “Css = 84ng/ml”, the T max entry is “T max = 1.8 ± 0.7 hours” and the “Volume of distribution Vd” value was “Vd = 294 litres”. For the same compound, the “steady state plasma concentration (Css)” value in data set [4] is recorded as “around 110 ng/ml”.
